The source of these data is ChEMBL document CHEMBL5257100, “Discovery and development of benzene sulfonamide derivatives as anti-hepatic fibrosis agents” (Bioorg Med Chem Lett, 2023).

Data set [1] in a line: Inhibition of JAK1/STAT1/STAT3 signaling pathway in human LX2 cells assessed as decrease in TGF-beta induced STAT3 phosphorylation level at 1 uM incubated for 24 hrs by Western blot analysis. In kind it is cell-based.
For data set [2], the system named is LX-2. Briefly: Anti-hepatic fibrosis activity in human LX2 cells assessed as inhibition of TGFbeta1-induced alpha-SMA protein expression at 3 uM incubated for 24 hrs by western blot analysis. It counts as functional, cell-based. For orientation: A western blot detects proteins with antibodies after separation by electrophoresis.
Data set [3] can be described thus: Inhibition of JAK1/STAT1/STAT3 signaling pathway in human LX2 cells assessed as decrease in TGF-beta induced JAK1 phosphorylation level at 1 uM incubated for 24 hrs by Western blot analysis. It counts as cell-based.
A short description of data set [4]: Cytotoxicity against human LX2 cells assessed as mortality rate at 1 to 30 uM incubated for 24 hrs by Sulfonyl Rhodamine B assay. It counts as toxicity, cell-based. As to conditions: lx-2, 24 h, dose 1-30 µM.
The subject of data set [5] is LX-2. Briefly: Anti-hepatic fibrosis activity in human LX2 cells assessed as inhibition of TGF-beta1 induced MMP-2 mRNA expression at 3 micromol/L incubated for 24 hrs by qPCR analysis. In kind it is functional, cell-based. As to conditions: dose 3.0 µmol/L. On the technique in general: In qPCR the cycle at which signal appears reflects the starting amount.
Data set [6] relates to LX-2. Description: Anti-hepatic fibrosis activity in human LX2 cells assessed as inhibition of TGFbeta1-induced COL1A1 protein expression at 1 uM incubated for 24 hrs by western blot analysis. In kind it is functional, cell-based.
Data set [7] deals with LX-2. Description: Anti-hepatic fibrosis activity in human LX2 cells assessed as inhibition of TGFbeta1-induced FN protein expression at 3 uM incubated for 24 hrs by western blot analysis. In kind it is functional, cell-based.
Another data set deals with AML12. Description: Cytotoxicity against mouse AML12 cells assessed as mortality rate at 1 to 30 uM incubated for 24 hrs by Sulfonyl Rhodamine B assay. As to conditions: aml12, 24 h, dose 1-30 µM. It counts as toxicity, cell-based.
Data set [8] is described as follows: Anti-hepatic fibrosis activity in human LX2 cells assessed as inhibition of COL1A1 promoter activity at 25 micromol/L by luciferase reporter assay relative to control. As to conditions: LX-2, dose 25 µmol/L. In kind it is functional.
The nature of data set [9]: Inhibition of JAK1/STAT1/STAT3 signaling pathway in human LX2 cells assessed as decrease in TGF-beta induced STAT1 phosphorylation level at 1 uM incubated for 24 hrs by Western blot analysis. It counts as cell-based.
The test system of data set [10] is LX-2. Description: Anti-hepatic fibrosis activity in human LX2 cells assessed as inhibition of TGFbeta1-induced TIMP-1 protein expression at 3 uM incubated for 24 hrs by western blot analysis. It counts as functional, cell-based.
Data set [11] concerns LX-2. Briefly: Anti-hepatic fibrosis activity in human LX2 cells assessed as inhibition of TGF-beta1 induced intrinsic TGF-beta1 mRNA expression at 3 micromol/L incubated for 24 hrs by qPCR analysis. It counts as functional, cell-based. As to conditions: dose 3.0 µmol/L.
In data set [12] the test system is LX-2. Briefly: Anti-hepatic fibrosis activity in human LX2 cells assessed as inhibition of TGFbeta1-induced TIMP-1 protein expression at 1 uM incubated for 24 hrs by western blot analysis. In kind it is functional, cell-based.
Data set [13] relates to LX-2. Description: Anti-hepatic fibrosis activity in human LX2 cells assessed as inhibition of TGF-beta1 induced COL1A1 mRNA expression at 3 micromol/L incubated for 24 hrs by qPCR analysis. It counts as functional, cell-based. As to conditions: dose 3.0 µmol/L.
The test system of data set [14] is LX-2. Briefly: Anti-hepatic fibrosis activity in human LX2 cells assessed as inhibition of TGFbeta1-induced FN protein expression at 1 uM incubated for 24 hrs by western blot analysis. In kind it is functional, cell-based.
The test system of data set [15] is LX-2. Briefly: Anti-hepatic fibrosis activity in human LX2 cells assessed as inhibition of TGFbeta1-induced COL1A1 protein expression at 3 uM incubated for 24 hrs by western blot analysis. It counts as functional, cell-based.
The subject of data set [16] is LX-2. Description: Anti-hepatic fibrosis activity in human LX2 cells assessed as inhibition of TGFbeta1-induced alpha-SMA protein expression at 1 uM incubated for 24 hrs by western blot analysis. It counts as functional, cell-based.

SMILES strings stand for the structures. Calls of active or inactive are those of the source. The rule behind the calls is not given here.

With `O=C(Nc1ccccc1NS(=O)(=O)c1cccc([N+](=O)[O-])c1)c1cc(Cl)c(Cl)c(Cl)c1`, the inhibition result (in [1]; in the data set with LX-2 [2]; in data set [3]; in the data set with LX-2 [5]; in the data set on LX-2 [6]; in the data set with LX-2 [7]) was “Active” throughout. Moreover, the inhibition entry (in data set [9]; with LX-2 [10]; in the data set with LX-2 [11]; in the data set with LX-2 [12]; in the data set on LX-2 [13]; in the data set on LX-2 [14]) was “Active” in each case. Moreover, the inhibition entry in the data set with LX-2 [15] and in the data set on LX-2 [16] was “Active” each time. Also, the Activity entry in data set [4] is reported as “Toxic”; in the data set with AML12 it was “Non-Toxic”. Besides, the inhibition at 25 µM in [8] was 61.7%.
Take `O=C(Nc1ccccc1NS(=O)(=O)c1ccc([N+](=O)[O-])cc1)c1cc(Cl)c(Cl)c(Cl)c1`: the inhibition result (in data set [1]; with LX-2 [2]; in data set [3]; in the data set on LX-2 [5]; in the data set on LX-2 [6]; in the data set on LX-2 [7]) was “Active” in each case. Moreover, the inhibition result (in data set [9]; with LX-2 [10]; with LX-2 [11]; in the data set with LX-2 [12]; in the data set on LX-2 [13]; in the data set with LX-2 [14]) was “Active” throughout. Moreover, the inhibition entry with LX-2 [15] and in the data set on LX-2 [16] was “Active” each time. The Activity result (in data set [4]; in the data set on AML12) was “Non-Toxic” throughout. In [8], the inhibition at 25 µM was 54.8%.
Regarding `O=C(Nc1ccccc1NS(=O)(=O)c1cccc(C(F)(F)F)c1)c1cc(Cl)c(Cl)c(Cl)c1`, the inhibition entry (in data set [1]; in data set [3]; with LX-2 [5]; in the data set with LX-2 [6]; in [9]; in the data set with LX-2 [11]) was “Active” each time. In addition, the inhibition entry in the data set on LX-2 [12], with LX-2 [13], in the data set with LX-2 [14] and in the data set with LX-2 [16] was “Active” throughout. For the same molecule, the Activity result (in data set [4]; with AML12) was “Non-Toxic” throughout. In addition, the inhibition at 25 µM in [8] came to 60.7%.

By inhibition is commonly meant the change of the read-out against control, counted positive when it falls.
